From patent publication US7781418B2, “Composition for treating bone disorders” (Isis Innovation Ltd., priority 2006, dated 2010)
Where a name gives a salt, the structure may show the parent alone.

Key:
[1] = biological target: T1, farnesyl pyrophosphate synthase (FPPS) (Homo sapiens, UniProt P14324); assay: farnesyl pyrophosphate synthase (FPPS) inhibition assay; format: biochemical
T1 sequence (P14324 1-419): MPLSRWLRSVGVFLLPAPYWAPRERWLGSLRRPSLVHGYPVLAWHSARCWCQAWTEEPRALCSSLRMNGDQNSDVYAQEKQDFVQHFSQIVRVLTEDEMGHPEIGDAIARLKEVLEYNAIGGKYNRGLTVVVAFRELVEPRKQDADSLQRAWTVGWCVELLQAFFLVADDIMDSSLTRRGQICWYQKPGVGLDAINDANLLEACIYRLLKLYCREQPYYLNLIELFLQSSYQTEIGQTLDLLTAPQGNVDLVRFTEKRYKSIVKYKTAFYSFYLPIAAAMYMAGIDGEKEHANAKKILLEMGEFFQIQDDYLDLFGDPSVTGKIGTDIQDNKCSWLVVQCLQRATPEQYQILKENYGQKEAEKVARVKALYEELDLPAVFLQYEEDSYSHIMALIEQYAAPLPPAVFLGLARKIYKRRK
Procedure: The activity of the racemic mixture, is approximately 42 nM.

[2] = test system: bone resorption and mineralization; assay: Schenk Model: in vivo bone resorption inhibition and mineralization inhibition, lowest effective dose; details: for Lowest Effective Dose, Bone Mineral Density (BMD) / Lowest Effective Dose, Bone Mineral Content (BMC): head-to-head comparison of all three compounds; for Lowest Effective Dose, Bone Mineral Content (BMC): highest dose tested 0.1

SMILES | IC50 [1] [nM] | Lowest Effective Dose, Bone Mineral Density (BMD) [2] [mg P/kg] | Lowest Effective Dose, Bone Mineral Content (BMC) [2] | activity in the Schenk assay relative to enantiomer (1S,6R) and racemic mixture ([2]; compared with (1S,6R) enantiomer and corresponding racemic mixture)
O=P(O)(O)C1(P(=O)(O)O)CC2CCCNC2C1 (racemic) [Racemic Mixture] | ~42 | 0.03 | 0.03 mg P/kg | –
O=P(O)(O)C1(P(=O)(O)O)C[C@@H]2CCCN[C@@H]2C1 [1R,6S Isomer, (1R,6S)-2-Azabicyclo[4.3.0]nonane-8,8-diphosphonic acid hydrochloride salt] | 15 | 0.01 | 0.01 mg P/kg | more active
O=P(O)(O)C1(P(=O)(O)O)C[C@H]2CCCN[C@H]2C1 [1S,6R Isomer] | 359 | 0.1 | >0.1^2^ mg P/kg | –
